This note sets out measurements from US6043212A, “Recombinant C140 receptor, its agonists and antagonists, and nucleic acids encoding the receptor” (COR Therapeutics, Inc., priority 1995, dated 2000).

For assay [1], the target named is T1, C140 receptor (Mus musculus, UniProt P55086).
T1 construct: expressed in transfected cells; host or cells: frog oocytes injected with C140 receptor cRNA
T1 sequence (P55086 26-399): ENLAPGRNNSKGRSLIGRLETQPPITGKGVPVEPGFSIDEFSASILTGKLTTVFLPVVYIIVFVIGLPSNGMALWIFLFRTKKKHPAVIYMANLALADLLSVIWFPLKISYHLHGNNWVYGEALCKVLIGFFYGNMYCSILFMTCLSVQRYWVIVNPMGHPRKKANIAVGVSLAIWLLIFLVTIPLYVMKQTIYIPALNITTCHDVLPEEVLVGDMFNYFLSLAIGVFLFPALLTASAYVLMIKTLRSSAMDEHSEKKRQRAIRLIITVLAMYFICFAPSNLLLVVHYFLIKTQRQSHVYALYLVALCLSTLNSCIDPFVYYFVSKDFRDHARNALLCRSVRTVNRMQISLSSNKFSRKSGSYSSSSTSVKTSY
The assay can be described thus: Activation of frog oocytes injected with C140 receptor cRNA by proteases. It counts as cell-based. The conditions noted are these: FIG. 9c. The source says:
FIGS. 9a and 9b show the ability of plasmin and kallikrein respectively to activate oocytes injected with C140 cRNA (open circles) or water (crosses) as control.

A short description of assay [2]: Hypotensive activity: arterial pressure after injection into rat femoral vein. It counts as in vivo. The conditions noted are these: FIG. 7. As for the experimental part:
The C140 agonist SLIGRL (SEQ ID NO: 23) was injected in 0.2 ml buffer at various concentrations into rat femoral vein and the arterial pressure was monitored.

Assay [3] deals with rat femoral vein. The assay can be described thus: Vasodilation of isolated rat femoral vein contracted with PGF2α (organ bath). The conditions noted are these: PGF2α 3×10^-5 M, test substance 10^-5 M. As for the experimental part:
This effect was also shown by observing vasodilation as a result of stimulation of the rat femoral vein with the above agonist. Adult Sprague-Dawley rats were killed by exsanguination during diethylether anesthesia and the femoral vein was removed and dissected free from fat and connective tissue. Circular preparations of the vein were mounted in an organ bath (5 ml) on two L-formed metal holders (0.2 mm diameter). One of the metal holders was screwed into one of the levers of a Grass FTO C force displacement transducer. The bathing liquid was Kreb's Ringer solution containing 118 mM NaCl, 4.7 mM KCl, 2.5 mM CaCl2, 1.2 MM MgSO4, 24.8 mM NaHCO3, 1.2 mM KH2 PO4 and 5.6 mM glucose. The bathing fluid was continuously treated with 88.5% oxygen-11.5% CO2; the temperature was held at 37° C. The endothelium was removed by bubbling CO2 through the vessels. The basal tension was between 7.5 and 12 mN. The preparations were equilibrated for at least 1 hr before application of agonist and control substances.

Peptide text beside a SMILES is read from it.

In the case of trypsin, the “Activation of oocytes injected with C140 receptor cRNA versus substance K receptor cRNA” value in assay [1] is “differential effect”.

Turning to `CC[C@H](C)[C@H](NC(=O)[C@H](CC(C)C)NC(=O)[C@@H](N)CO)C(=O)NCC(=O)N[C@@H](CCCNC(=N)N)C(=O)N[C@@H](CC(C)C)C(=O)O` [SLIGRL] (H-SLIGRL-OH), the “Effect on arterial blood pressure” value is reported as “appreciable decrease in blood pressure” in assay [2] (0.2 ml buffer at 0.1 mM into femoral vein) and “larger decreases” in assay [2] (0.2 ml buffer at 1 mM into femoral vein). For the same compound, the “Effect on contraction induced by PGF2α” value in assay [3] (endothelium present, FIG. 8a) was “relaxed”; in assay [3] (endothelium removed, FIG. 8b), “not counteracted”.
